Data: patent publication US7202278B2, “4-fluoro-N-indan-2-yl benzamide and its use as a pharmaceutical” (Sanofi-Aventis Deutschland GmbH, priority 2001, dated 2007)

What was measured:
[1] = system: eNOS promoter; assay: Activation of eNOS transcription (eNOS promoter-luciferase reporter); type: cell-based, human; conditions: 18 h incubation
Experimental: Activation of eNOS transcription was measured as described in detail in Li et al. “Activation of protein kinase C alpha and/or epsilon enhances transcription of the human endothelial nitric oxide synthase gene”, Mol. Pharmacol. 1998, 53: 630–637.
Briefly, a 3.5 kB long fragment 5′ of the starting codon of the eNOS gene was cloned, sequenced and cloned in firefly luciferase expression plasmids to monitor activation of the eNOS promoter by reporter gene activity. A human endothelial cell line stable transfected and expressing this promoter-reporter construct was used for compound testing. Cells were incubated for 18 h with the compound (I).
Prior to incubation of the cells, the compound (I) was dissolved in sterile DMSO. A final concentration of 0.5% DMSO in complete medium was obtained. Induction of reporter gene expression in these cells was measured using a standard luciferase assay system (Promega, Cat. No E150) according to the manufacturer's instructions. Luciferase induction in cells incubated with compound (I) were compared to those incubated with solvent alone. The ratio of both activities (transcription induction ratio, TIR) was plotted as a function of compound concentration. […] EC50 values of transcription induction ratios as a function of compound concentration were determined graphically.

[2] = system: eNOS protein expression; assay: eNOS protein detection in HUVEC by quantitative Western blotting; type: cell-based, human; conditions: 18 h incubation
Experimental: The effect of the compound (I) on eNOS-transcription was confirmed in a second assay based on eNOS protein detection. Primary human umbilical vein cord endothelial cells (HUVEC) were isolated and cultivated according to standard procedures. Confluent cells were incubated with compound (I) for 18 h and the effect on eNOS protein expression determined by a quantitative Western blotting procedure. After incubation of compound (I), HUVEC were lysed in ice-cold lysis buffer containing 10 mM Tris-HCl, pH 8.0, 1% SDS and protease inhibitors. The lysate was subjected to a standard denaturating polyacrylamid gel electropheresis and blotted to nitrocellulose membranes. Using a specific primary monoclonal antibody (Transduction Laboratories, UK) and alkaline phosphatase labelled secondary antibody (Jackson Labs), a specific eNOS protein band was visualized and quantified based on a chemifluorescence detection method.

[3] = system: ApoE deficient mice; assay: Anti-hypertensive effect in ApoE knockout mice (tail-cuff); type: in vivo; conditions: 30 mg/kg/d p.o. in chow, after 4 months treatment, placebo 115±2 mmHg, p<0.05
Description: (§1) ApoE and eNOS deficient mice (C57BL/6J background, Jackson Laboratory, Bar Harbor, Me.) were used. All animals were 10–12 weeks of age and weighed 22 to 28 g. Three days before surgery, mice were divided into 4 groups (apoE control, n=10–12; apoE with compound (I), n=10–12; eNOS control, n=10–12; eNOS with compound (I), n=10–12) and received either a standard rodent chow (containing 4% fat and 0.001% cholesterol; in the following designated as placebo group) or a standard rodent chow+compound (I) (10 or 30 mg/kg/d p.o.).
(§2) Blood-pressure was determined in conscious mice using a computerized tail-cuff system.

[4] = system: eNOS deficient mice; assay: Blood pressure in eNOS deficient mice (tail-cuff); type: in vivo; conditions: similar dosing, after 4 weeks treatment
Description: as §1, §2

[5] = system: ApoE deficient mice; assay: Inhibition of neointima formation and atherogenesis (femoral artery cuff), ApoE deficient mice; type: in vivo
Description: as §1
After 3 days treatment of ApoE deficient mice with compound (I), (10 mg/kg/d pressed in chow), animals were anesthetized with an intraperitoneal injection of pentobarbital (60 mg/kg) followed by an intramuscular injection of xylazin (2 mg/kg) and a cuff was placed around the femoral artery as described in Moroi et at. (J Clin Invest. 101:1225–32, 1998). Briefly, the left femoral artery was dissected. A non-occlusive 2.0 mm polyethylene cuff made of PE-50 tubing (inner diameter 0.56 mm, outer diameter 0.965 mm, Becton Dickinson, Mountain View, Calif.) was placed around the artery and tied in place with two 7–0 sutures. The right femoral artery was isolated from the surrounding tissues but a cuff was not placed. Treatment with compound (I) was continued for 14 days after surgery. Then the animals were sacrificed. The aortas were taken for determination of vascular eNOS expressions by quantitative western blotting. Both femoral arteries were harvested, fixed in formalin and embedded in paraffin. 20 cross sections (10 μm) were cut from the cuffed portion of the left femoral artery and from the corresponding segment of the right artery. Sections were subjected to standard hematoxylin and eosin staining. Morphometric analyses were performed using an image analysis computer program (LeicaQWin, Leica Imaging Systems, Cambridge, GB). For each cross section the area of the lumen, the neointima and the media were determined. […] The ratio between the area of the neointima and the area of the media was expressed as the neointima/media ratio.

[6] = system: eNOS deficient mice; assay: Femoral artery cuff model in eNOS deficient mice; type: in vivo; conditions: similar setup
Description: as §1
After 3 days treatment of ApoE deficient mice with compound (I), (10 mg/kg/d pressed in chow), animals were anesthetized with an intraperitoneal injection of pentobarbital (60 mg/kg) followed by an intramuscular injection of xylazin (2 mg/kg) and a cuff was placed around the femoral artery as described in Moroi et at. (J Clin Invest. 101:1225–32, 1998). Briefly, the left femoral artery was dissected. […] The aortas were taken for determination of vascular eNOS expressions by quantitative western blotting. […] For each cross section the area of the lumen, the neointima and the media were determined. […] The ratio between the area of the neointima and the area of the media was expressed as the neointima/media ratio.

[7] = system: ApoE deficient mice; assay: Prevention of atherosclerotic plaque formation in chronic treatment; type: in vivo
Description: as §1
ApoE deficient mice were treated for 16 weeks with compound (I) pressed in chow and finally sacrificed. Aortas were removed from each mouse, fixed in formalin and embedded in paraffin. Plaque formation was measured via lipid lesions formation in the aortas (from aortic arch to diaphragm) and was analyzed by oil red O staining. For quantifying the effect of the respective compound on vascular eNOS expression the […] were used in this experiment.

[8] = system: ApoE deficient mice; assay: Improvement of coronary function in diseased ApoE deficient mice (isolated working heart); type: in vivo
Experimental: Old Male wild-type C57BL/6J mice (Charles River Wiga GmbH, Sulzfeld), and apolE deficient mice (C57BL/6J background, Jackson Laboratory, Bar Harbor, Me.) 6 month of age and weighing 28 to 36 g were used in the experiments. Mice were divided into 3 groups (C57BL/6, n=8; apoE control, n=8; apoE with compound (I), n=8) and received for 8 weeks either a standard rodent chow (containing 4% fat and 0.001% cholesterol) or a standard rodent chow+compound (I) (30 mg/kg/d p.o.).
Mice were anesthetized with sodium pentobarbitone (100 mg/kg i.p.), and the hearts were rapidly excised and placed into ice-cold perfusion buffer. The aorta was cannulated and connected to a perfusion apparatus (HUGO SACHS ELECTRONICS, Freiburg, Germany) which was started immediately at a constant perfusion pressure of 60 mm Hg. Hearts were perfused in a retrograde fashion with modified Krebs bicarbonate buffer, equilibrated with 95% O2 and 5% CO2 and maintained at 37.5° C.
A beveled small tube (PE 50) was passed through a pulmonary vein into the left ventricle and pulled through the ventricular wall, anchored in the apex by a fluted end, and connected to a tip-micromanometer (Millar 1.4 French). The left atrium was cannulated through the same pulmonary vein and the heart switched to the working mode with a constant preload pressure of 10 mm Hg and an afterload pressure of 60 mm Hg. Aortic outflow and atrial inflow were continuously measured using ultrasonic flow probes (HSE/Transonic Systems Inc.). Coronary flow was calculated as the difference between atrial flow and aortic flow. All hemodynamic data were digitized at a sampling rate of 1000·Hz and recorded with a PC using specialized software (HEM, Notocord).
Hearts were allowed to stabilize for 30 min. All functional hemodynamic data were measured during steady state, and during volume- and pressure loading.
Left ventricular function curves were constructed by varying pre-load pressure. For acquisition of preload curves, afterload was set at 60 mm Hg and preload was adjusted in 5 mm Hg steps over a range of 5 to 25 mm Hg. […]

[9] = isolated hearts of ApoE deficient mice, 30 mg/kg/d p.o., 8 weeks

O=C(NC1Cc2ccccc2C1)c1ccc(F)cc1 [compound (I), 4-fluoro-N-indan-2-yl benzamide]
EC50 ([1]; human endothelial cell line stably transfected with eNOS promoter-luciferase construct, read-out: EC50 of transcription induction ratio): 800 nM
TIR(max) (maximum transcription induction ratio) ([1]; human endothelial cell line, ratio versus solvent alone): 4.10
effect on eNOS protein expression [2]: confirmed
blood pressure [3]: 92±5 mmHg
blood pressure reduction [4]: No blood pressure reduction could be observed
reduction of neo-intima formation (factor) ([5]; 10 mg/kg/d in chow, 3 days before to 14 days after cuff surgery): 2
neointima to media ratio ([5]; 10 mg/kg/d in chow, cuffed femoral artery, placebo 0.39±0.07): 0.170±0.04
vascular eNOS expression enhanced by a factor ([5]; 10 mg/kg/d, aortas, quantitative western blotting): 2.1
effect on neointima formation / eNOS expression [6]: No effect
overall plaque size in % of total surface ([7]; 16 weeks treatment in chow, aortas, oil red O staining, placebo 13.3±2.6): 5.2±1%
vascular eNOS expression up-regulation ([7]; 16 weeks treatment, femoral arteries): 1.75 fold
coronary flow ([8]; isolated hearts of ApoE deficient mice treated 8 weeks with 30 mg/kg/d p.o., wildtype 4.95 ml/min): 5 mL/min
incidence of ventricular arrhythmias [8, 9]: reduced
pre-load dependent coronary flow [8, 9]: improved
